The values below are quoted from earlier work in patent publication US11723862B2, “Dosage form with sustained release melatonin pellets” (SOCIÉTÉ DES PRODUITS NESTLÉ S.A., priority 2020, dated 2023).

The conditions of this data set: above pH=4.4.

Molecules are shown by their SMILES.

As for `COc1ccc2[nH]cc(CCNC(C)=O)c2c1` [melatonin], the aqueous solubility result was “low”.
